Results from patent US7608636B2, “Medicines for treatment and prevention of neurogenic pain” (Hamilton Pharmaceuticals, Inc., priority 2000, dated 2009).

Assays:
[1] = tested on: ddY male mice; assay: von Frey test, administration into spinal subarachnoid space, partial sciatic nerve ligation model; assay type: in vivo, mouse; conditions: for effect on escape reaction threshold (von Frey): control group subjected only to the dissection, administration into spinal subarachnoid space (10 nmol), compared to physiological saline; for effect on noxious response threshold (von Frey): neuropathic pain model (sciatic nerve bound), administration into spinal subarachnoid space, nefiracetam 1 and 10 nmol, morphine 10 nmol, oxiracetam 10 nmol
Protocol: 42 of ddY male mice having a body weight of 16 to 18 g were used. […] The mice were anesthetized with pentobarbital, and skin of right hind leg of each mouse was dissected so that sciatic nerve was observed. The half of sciatic nerve fibers was bound with a suture for 24 mice among 42 mice, and only the dissection was performed for the remaining 18 mice (a control group). After the dissection site was sutured, the animals were left for 7 days (Xun Ye et al, Jpn. J. Pharmacol. 2000, Malmberg A B and Basbaum A I, Pain 1998). […] The group of mice of which sciatic nerves were bound was divided into 4 groups, and the threshold was measured twice. The average of the values was used as a control value. Then, mice of each group were each administered with 5 μl (1 nmol) of nefiracetam, 5 μl (10 nmol) of nefiracetam, 5 μl (10 nmol) of morphine or 5 μl of physiological saline into spinal subarachnoid space. After the administration, the threshold was repeatedly measured for 60 minutes with intervals of 10 minutes. The group of mice that were subjected only to the dissection was divided into three groups, and a control value was measured in the same manner as described above. Then, mice of each group were each administered with 5 μl (10 nmol) of nefiracetam, 5 μl (10 nmol) of morphine or 5 μl of physiological saline into spinal subarachnoid space, and the threshold was measured in the same manner as described above.
In the same manner as in Example 2, 5 μl (10 nmol) of oxiracetam was administered and the threshold was measured.
In the von Frey test, the escape reactions caused by mechanical noxious stimulus, which was given for a time period of 60 minutes with intervals of 10 minutes, were evaluated as a threshold (g).

[2] = tested on: ddY male mice; assay: von Frey test, oral administration of nefiracetam, partial sciatic nerve ligation model; assay type: in vivo, mouse; conditions: oral administration 3, 10 or 30 mg/kg
Protocol: 36 of ddY male mice having a body weight of 16 to 18 g were used. In the von Frey test, the mice were placed on a mesh, and hind leg footpads of the mice were stimulated with a von Frey filament (digital type von Frey tester MODEL 1601 (IITC INC., U.S.A.)) every 15 minutes, and the threshold values observed at the beginning of an escape reaction were represented in a unit of gram. The mice were anesthetized with pentobarbital, and skin of right hind leg of each mouse was dissected so that sciatic nerve was observed. The half of sciatic nerve fibers was bound with a suture for 24 animals among the 36 animals, and only the dissection was performed for the remaining 12 animals (a sham group). After the dissection site was sutured, experiments were performed on the 7th day (Xun Ye et al, Jpn. J. Pharmacol. 2000, Malmberg A B and Basbaum A I, Pain 1998). […] The group of mice of which sciatic nerves were bound was divided into 4 groups, and the threshold was measured twice. […] Then, mice of each group were each orally administered with 3 mg/kg, 10 mg/kg or 30 mg/kg of nefiracetam or physiological saline (10 ml/kg), and the threshold was repeatedly measured for 90 minutes with intervals of 15 minutes. The mice of the control group (the sham group) that were subjected only to the dissection were divided into two groups, and a control value was measured in the same manner as described above. […]

[3] = tested on: male mouse; conditions: p.o.; cited from earlier work
[4] = tested on: ddY male mice; assay: Peripheral nociception test (bradykinin-induced nociceptive flexion reaction), partial sciatic nerve ligation model; assay type: in vivo, mouse
Protocol: 17 of ddY male mice having a body weight of 13 to 15 g were used. The mice were anesthetized with pentobarbital, and skin of right hind leg of each mouse was dissected so that sciatic nerve was observed. The half of sciatic nerve fibers was bound with a suture for 9 mice among 17 mice, and only the dissection was performed for the remaining 8 animals (a control group). After the dissection site was sutured, the animals were left for 7 days (Xun Ye et al, Jpn. J. Pharmacol. 2000, Malmberg A B and Basbaum A I, Pain 1998). […] The group of mice of which sciatic nerves were bound was divided into two groups, and mice of one group were each administered with 5 μl (10 nmol) of nefiracetam and mice of the other group were each administered with 5 μl of physiological saline into spinal subarachnoid space. After the administration, the mice were each subcutaneously administered at a right hind leg footpad with physiological saline at 10 minutes and 15 minutes, 2 μl (0.1 fmol) of bradykinin at 20 minutes and 25 minutes, 2 μl (1 fmol) of bradykinin at 30 minutes and 35 minutes, 2 μl (10 fmol) of bradykinin at 40 minutes and 45 minutes, and 2 μl (100 fmol) of bradykinin at 50 minutes and 55 minutes after the administration. […]
In the mouse peripheral nociception test, nociceptive flexion reactions caused by chemical pain stimulus using bradykinin were evaluated. […]

[5] = tested on: ddY male mice; assay: Hargreaves test, diabetic neuropathic pain (streptozotocin mice); assay type: in vivo, mouse; conditions: mice with diabetes mellitus (streptozotocin); oral administration 3, 10 or 30 mg/kg
Protocol: 36 of ddY male mice having a body weight of 28 to 30 g were used. In the Hargreaves test, the mice were placed on a glass plate, and hind leg footpads of the mice were stimulated with radiant heat (combination type analgesia meter MODEL 336 (IITC INC., U.S.A.)) every 10 minutes. And the latent time until the beginning of an escape reaction was measured. The mice with diabetes mellitus were prepared by administering streptozotocin (200 mg/kg) dissolved in 0.1 N citrate buffer (pH 4.5) to caudal arteries, and the experiment was performed on the 7th day. […] 24 animals among the 36 animals were determined as mice with diabetes mellitus according to the method described above, and the remaining 12 mice were administered with 0.1 N citrate buffer at caudal arteries and used as a comparative control group (control group). The mice with diabetes mellitus were divided into 4 groups, and the threshold was measured twice. […] Then, mice of each group were each orally administered with 3 mg/kg, 10 mg/kg or 30 mg/kg of nefiracetam or physiological saline (10 ml/kg), and the latent time was repeatedly measured for 60 minutes with intervals of 10 minutes. The control group was divided into two groups, and a control value was measured as described above. […]

Structure (SMILES)	effect on escape reaction threshold (von Frey) [1]	effect on noxious response threshold (von Frey) [1]	suppressing effect on neuropathic pain by oral administration (von Frey) [2]	Acute toxicity [3]	effect on the reaction caused by bradykinin administered to footpad ([4]; control group subjected only to the dissection, without nervous disturbance, administered into spinal subarachnoid space, compared to physiological saline)	bradykinin sensitive response (analgesic effect) ([4]; neuropathic pain model (sciatic nerve bound), administration into spinal subarachnoid space, bradykinin 0.1 to 100 fmol)	suppression effect on diabetic neuropathic pain (Hargreaves latent time) [5]
CN1CC[C@]23c4c5ccc(O)c4O[C@H]2[C@@H](O)C=C[C@H]3[C@H]1C5 [morphine, reference compound]	did not give significant effect	no significant effect					
Cc1cccc(C)c1NC(=O)CN1CCCC1=O [nefiracetam, N-(2,6-dimethylphenyl)-2-(2-oxo-1-pyrrolidinyl)acetamide]	did not give significant effect	analgesic effect in a dose-dependent manner	suppressing effect on neuropathic pain	2,005 mg/kg	not significant	completely suppressed	suppression effect
NC(=O)CN1CC(O)CC1=O (stereo not shown) [oxiracetam, 4-hydroxy-2-oxo-1-pyrrolidineacetamide]		analgesic effect substantially equivalent to that of nefiracetam					
